Laboratory results from patent US10774049B2, “PU.1 inhibitors” (Albert Einstein College of Medicine, priority 2016, dated 2020).
Structures can show the parent of a compound that is named as a salt. Where two headings read alike, the source gives them in different places.

What was measured:
λB promoter DNA sequence = assay: SPR binding of compounds to immobilized λB promoter DNA; parameters: species or system murine; details: biosensor-SPR, 1:1 complex
Method: FIG. 8A-8C depicts (A) DB2313 synthesis (B-C) Representative SPR sensorgrams for compounds binding to the immobilized λB promoter DNA sequence: (B) DB2313 (KD=7±2 nM) and (C) DB1976 (KD=5±2 nM) as previously described (Munde et al., 2014). The solid black lines are best fit values for global kinetic fitting of the results with a single binding site function. Similar experiments with DB2115 gave a KD=1±2 nM. The plots are for the SPR signal (RU) versus time from injection of the compound over the sensorchip. From 0 to 180 seconds, compound is being injected (association) and after that only buffer flows over the chip. (B) From top to bottom: 10, 30, 40 nM. (C) From top to bottom: 5, 10, 15 nM.
To test whether these heterocyclic diamidines targeted cognate DNA binding sites for PU.1, we assessed binding to the λB motif by biosensor-surface plasmon resonance (SPR). Duplex DNA harboring the λB motif was immobilized on a streptavidin functionalized sensor chip with a dextran surface as described. The DNA was 5′-end labeled with biotin and captured on the sensor chip. Based on the known strong AT selectivity of these heterocyclic diamidines, they are expected to bind to the AT rich λB promoter sequence at the 5′ side of the 5′-GGAA-3′ PU.1 conserved recognition sequence. Sensorgrams obtained from the compounds-DNA association and disassociation reactions were used to determine equilibrium dissociation constants. The KD values indicate strong binding by all three compounds to form a 1:1 complex, and a binding K^D of 1±2 nM for DB2115 and 4-7 nM for DB1976 and DB2313 with the λB promoter.

[1] = system: PU.1 URE−/− AML cell line; assay: Cell viability/growth of PU.1 URE−/− AML cells; format: cell-based, murine; details: Mus musculus
Method: (§1) FIG. 2A-2F. PU.1 inhibition decreases cell growth and increases apoptosis of PU.1^1″ leukemic cells. (A) Chemical structures of heterocyclic diamidines DB1976, DB2115 and DB2313 used in this study. (B) Relative cell viability of URE−/− cells and BAF3 cells after treatment with increasing concentrations of vehicle or small molecules. Cell viability was assessed after 48 h. Data represent means of technical triplicate from one representative experiment; fold change compared to Vehicle is shown. (C) Cell proliferation assay of URE−/− after treatment with DB1976 (n=5), DB2115 (n=3), DB2313 (n=3), of MOLM13 cells (n=3), and THP1 cells (n=3). Cell counting was performed every 24 h during 4 days. Data represent means±SD of technical triplicate from one representative experiment. Forward strand: SEQ ID NO:3, and Reverse strand: SEQ ID NO:4; derived from the λB motif from the murine Ig lambda 2-4 enhancer, a known native PU.1-dependent gene and specific binding site for PU.1. (D) Clonogenic capacities of URE−/− cells after treatment with DB1976 (n=5), DB2115 (n=3) and DB2313 (n=4) in the first plating, and after serial replatings (n=3). Data represent means±SD of technical triplicate from one representative experiment. (E) Apoptotic cells (Annexin-V+Dapi−) fraction in URE−/− cells after 48 h of treatment with DB1976 (n=6), DB2115 (n=6) and DB2313 (n=3). Data represent the means±SD of independent experiments; fold change compared to Vehicle is shown. *P<0.05, **P<0.01, ***P<0.001, ****P<0.0001 (F) Dose dependent inhibitor of PU.1-dependent transactivation.
To determine if our PU.1 inhibitors have an effect on PU.1^low-induced AML cells, we treated the PU.1 URE^−/− AML cell line with compounds at different concentrations. Treatment with the drugs led to a profound decrease in growth of PU.1 URE^−/− AML cells after 48 h whereas it had only minimal or no effects on control cells with normal PU.1 levels (BaF3), even at very high doses (FIG. 3A). […] Similar to our observations with PU.1-directed shRNAs, treatment with pharmacological PU.1 inhibitors led to a significant 1.6-, 2- and 3.5-fold increase of apoptotic cells with DB1976, DB2115 and DB2313, respectively, in murine PU.1 URE^−/− AML cells (FIG. 3C), and similar effects in human MOLM13 cells.

PU.1 URE−/− AML cells = assay: Apoptosis (Annexin-V+Dapi−) in PU.1 URE−/− AML cells; format: cell-based; details: murine PU.1 URE−/− AML cells, 48 h, vs vehicle
Method: as §1
To determine if our PU.1 inhibitors have an effect on PU.1^low-induced AML cells, we treated the PU.1 URE^−/− AML cell line with compounds at different concentrations. Treatment with the drugs led to a profound decrease in growth of PU.1 URE^−/− AML cells after 48 h whereas it had only minimal or no effects on control cells with normal PU.1 levels (BaF3), even at very high doses (FIG. 3A). […]

PU.1 transactivation = assay: GFP reporter expression in bone marrow mononuclear cells of PU.1-GFP knock-in reporter mouse; format: cell-based; details: PU.1-GFP knock-in bone marrow mononuclear cells
Source text: To assess on-target activity of our inhibitors in AML cells, we measured transcript levels of well-known PU.1 targets in PU.1 URE^−/− AML cells. It has been shown that PU.1 positively regulates Csf1r, Junb, and autoregulates itself, whereas it represses E2f1. In line with this, we found a decrease in Csf1r, Junb, and PU.1 transcript expression and an increase in E2f1 expression upon treatment with DB2115, or DB2313 (FIG. 4A, left panel). As Csf1r is one of the most sensitive PU.1 targets in myeloid cells, we assessed its expression at different time points (1 h, 4 h, 8 h and 24 h) after drug treatment. […] Furthermore, treatment of bone marrow mononuclear cells isolated from a PU.1-GFP knock-in reporter mouse model led to a decrease in GFP reporter expression after treatment with DB1976, DB2115, or DB2313, further confirming a direct effect of the compounds on PU.1 transactivation (FIG. 4B), and consistent with PU.1 positive autoregulation.

[2] = after 48 h, read-out: IC50 in PU.1 URE−/− AML

**Q.** For `N=C(N)c1ccc2nc(-c3ccc(-c4nc5ccc(C(=N)N)cc5[nH]4)[se]3)[nH]c2c1` [DB1976], which Kd (λB promoter DNA sequence) is on record?
**A.** 5 ± 2 nM

**Q.** What about the IC50 [1, 2] of the same molecule?
**A.** 25000 nM

**Q.** And the “fold increase of apoptotic cells” value (PU.1 URE−/− AML cells)?
**A.** 1.6 fold

**Q.** What about the GFP reporter expression (PU.1 transactivation) of the same molecule?
**A.** decrease

**Q.** For `CC(C)NC(=N)c1ccc2nc(-c3ccc(OCc4cccc(COc5ccc(-c6nc7ccc(C(=N)NC(C)C)cc7[nH]6)cc5)c4F)cc3)[nH]c2c1` [DB2313, 3-Bis{4[4(5)-N-isopropylamidinobenzimidazolyl]phenoxymethyl]}-2-fluorobenzene tetrahydrochloride], which Kd (λB promoter DNA sequence) is on record?
**A.** 7 ± 2 nM

**Q.** And the IC50 [1, 2]?
**A.** 330 nM

**Q.** What about the IC50 ([1]; read-out: IC50 URE−/−) of the same molecule?
**A.** 330 nM

**Q.** And the “fold increase of apoptotic cells” value (PU.1 URE−/− AML cells)?
**A.** 3.5 fold

**Q.** What about the GFP reporter expression (PU.1 transactivation) of the same molecule?
**A.** decrease

**Q.** How did the Kd (λB promoter DNA sequence) turn out when `N=C(N)c1ccc2nc(-c3ccc(OCCCCOc4ccc(-c5nc6ccc(C(=N)N)cc6[nH]5)cc4)cc3)[nH]c2c1` [DB2115] was run?
**A.** 1 ± 2 nM

**Q.** And the IC50 [1, 2]?
**A.** 700 nM

**Q.** And the “fold increase of apoptotic cells” value (PU.1 URE−/− AML cells)?
**A.** 2 fold

**Q.** What about the GFP reporter expression (PU.1 transactivation) of the same molecule?
**A.** decrease
